Values of other authors as cited in article PMC11866498 (Cell Reports Medicine, 2025).

Experiments:
[1] = ref Previous studies
[2] = ref Previous studies; remark: listed apart in the source

water solubility [1]: inadequate
in vivo stability [2]: inadequate
SMILES: C[C@H]1COC2=C1C(=O)C(=O)c1c2ccc2c1CCCC2(C)C [CTS, cryptotanshinone]
